Counter-ions that a name gives are not always drawn.
Assays:
presbyopic patient = settings: does not solve blurred distant vision; cited from earlier work
Presbiopic patients = assay: Topical eye-drop treatment of presbyopic patients (100 patients, 4 groups), follow-up of near and distant visual sharpness and tolerance; assay type: in vivo, human; settings: of 100 patients treated
Description: 100 Presbiopic patients of both sexes, of age 40 to 65, were treated with the compositions of the invention. Exclusion criteria concerned patients with myopia or astigmatism higher than 1 dioptre, and hypermetropia greater than 3 dioptres as well as those with corneal, lens and vitreous opacitis, and chronic general pathologies. 4 Different groups of presbyopic population were differentiated: Group 1: Pure presbyopics Group 2: Presbyopics with hypermetropia Group 3: Presbyopics with phorias Group 4: Presbyopics with glaucoma Patients of all groups were treated with eye drops of different concentrations and combinations of medicaments acting on the ocular sympathetic innervation. Pure presbyopic patients (Group 1) were topically treated with 1% pilocarpine hydrochloride+0.5% diclofenac sodium, at 6 hr intervals during the daily hours; treatment was suspended at night. Presbyopics with hypermetropia (Group 2) were topically treated with 2% pilocarpine hydrochloride+0.5% diclofenac sodium, at 6 hr intervals during the daily hours. […] All patients were monitored after one week treatment and monthly during the first three months to evaluate dosage and side-effects. […]

Row | SMILES | result of topical application to presbyopic patient (presbyopic patient) | patients showed intolerance (diarrhoea and dyspepsia) (Presbiopic patients)
1 | CNC(=O)Oc1ccc2c(c1)[C@]1(C)CCN(C)[C@@H]1N2C [physostygmine] | poor results | 
2 | CC[C@@H]1C(=O)OC[C@@H]1Cc1cncn1C [pilocarpine hydrochloride] |  | 2 patients
